According to patent US6372739B1, “Compounds and methods for modulation of estrogen receptors” (Signal Pharmaceuticals, Inc., priority 1998, dated 2002):
Structures can show the parent of a compound that is named as a salt. Where two headings read alike, the source gives them in different places. Values belong to the compound of their own block, whether it stands above or below them.

What was measured:
[1] = 3-day immature rat uterine bioassay; details: s.c.
[2] = target: human recombinant ER-β (Homo sapiens, UniProt Q92731); assay: Solid phase ER binding assay (3H-estradiol competition), ER-β
[3] = tested on: IL-6; assay: Human bone cell co-culture system, IL-6 production; format: cell-based
Description: The generation of osteoblastic cells from normal adult femoral travecular bone from patients without evidence of metabolic bone disease was carried out as previously described (Kung Sutherland et al., Osteoporosis International 5:334-343, 1995; Wong et al., J Bone Miner 5:803-813, 1990). Bone fragments were cleaned of adherent tissue and blood and cultured for 4 weeks in medium containing Ham's F12 supplemented with 28 mM HEPES, pH 7.4, 10% FCS, 1.1 mM CaCl2, 2 mM glutamine, and 1% antibiotic-antimycotic agent. Upon confluency, the cells were harvested and immortalized using a retroviral vector (pLXSN) containing the neomycin resistance gene and the human papillomaviral (HPV18) E6 and E7 concogenes (International Journal of Oncology 6:167-174, 1995). The immortalized osteoblastic cells were selected in medium containing G418 (600 μg/ml).
The human U937 moncytic cell line (cloned from the commercially available cells by serial dilution) was maintained in RPMI 1640 medium containing 10% FCS and 1% antibiotic-antimycotic agent.
The co-culture system was established as follows. Human osteoblastic cells were plated in 96-well dishes at a density of 5×10^3 cells/well. U937 cells in RPMI medium (5×10^4 cells/well) were layered over the osteoblasts. The formation of osteoclast-like cells was induced with 100 nM PMA. […]

[4] = tested on: GM-CSF; assay: Human bone cell co-culture system, GM-CSF production; format: cell-based; details: co-culture system of Example 8
Description: The co-culture system was established as follows. Human osteoblastic cells were plated in 96-well dishes at a density of 5×10^3 cells/well. U937 cells in RPMI medium (5×10^4 cells/well) were layered over the osteoblasts. The formation of osteoclast-like cells was induced with 100 nM PMA. To determine the effects of compounds or the neutralizing antibodies to IL-6 (Sigma) and GM-CSF (Pharmingen) on the formation of osteoclast-like cells, the compounds or the antibodies were added 30 minutes prior to the addition of PMA. The cultures were stopped after 96 hrs and processed for histochemical or immunohistochemical analyses.

[5] = 28-day uterine bioassay in ovariectomized rats; details: rat, in vivo
Description: All three componds were administered daily by s.c. injection. Estrogen prevented the uterine weight loss caused by ovariectomy by increasing the uterine weight by 550%. […] Raloxifene.HCl caused about a 70% increase in uterine weight which has been previously reported (Grese et al., supra; Ashby et al., supra). […] Thus, this compound has significant potential for the prevention and/or treatment of cancer and osteoporosis, as well as cardiovascular diseases and neurodegenerative diseases such as Alzheimer's disease.

[6] = target: T1, human recombinant ER-α (Homo sapiens, UniProt P03372); assay: Solid phase ER binding assay (3H-estradiol competition), ER-α; details: HCl salt; similar to estradiol
T1 sequence (P03372 1-595): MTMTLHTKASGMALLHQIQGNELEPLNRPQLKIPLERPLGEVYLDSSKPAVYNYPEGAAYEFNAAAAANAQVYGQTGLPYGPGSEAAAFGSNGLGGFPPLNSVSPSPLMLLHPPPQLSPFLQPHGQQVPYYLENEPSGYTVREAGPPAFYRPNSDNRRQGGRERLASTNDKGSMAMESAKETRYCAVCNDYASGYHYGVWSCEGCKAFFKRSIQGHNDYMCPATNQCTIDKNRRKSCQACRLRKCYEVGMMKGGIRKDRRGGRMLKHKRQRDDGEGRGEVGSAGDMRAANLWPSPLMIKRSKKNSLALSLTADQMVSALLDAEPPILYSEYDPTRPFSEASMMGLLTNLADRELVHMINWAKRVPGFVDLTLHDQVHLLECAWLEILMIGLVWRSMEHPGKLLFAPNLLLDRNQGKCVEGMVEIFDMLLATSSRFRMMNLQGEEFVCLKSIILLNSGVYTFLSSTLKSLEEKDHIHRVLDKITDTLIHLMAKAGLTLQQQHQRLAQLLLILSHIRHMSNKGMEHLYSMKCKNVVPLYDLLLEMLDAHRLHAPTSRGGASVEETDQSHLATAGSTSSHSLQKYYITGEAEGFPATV

human recombinant ER-β, sequence (Q92731 whole entry): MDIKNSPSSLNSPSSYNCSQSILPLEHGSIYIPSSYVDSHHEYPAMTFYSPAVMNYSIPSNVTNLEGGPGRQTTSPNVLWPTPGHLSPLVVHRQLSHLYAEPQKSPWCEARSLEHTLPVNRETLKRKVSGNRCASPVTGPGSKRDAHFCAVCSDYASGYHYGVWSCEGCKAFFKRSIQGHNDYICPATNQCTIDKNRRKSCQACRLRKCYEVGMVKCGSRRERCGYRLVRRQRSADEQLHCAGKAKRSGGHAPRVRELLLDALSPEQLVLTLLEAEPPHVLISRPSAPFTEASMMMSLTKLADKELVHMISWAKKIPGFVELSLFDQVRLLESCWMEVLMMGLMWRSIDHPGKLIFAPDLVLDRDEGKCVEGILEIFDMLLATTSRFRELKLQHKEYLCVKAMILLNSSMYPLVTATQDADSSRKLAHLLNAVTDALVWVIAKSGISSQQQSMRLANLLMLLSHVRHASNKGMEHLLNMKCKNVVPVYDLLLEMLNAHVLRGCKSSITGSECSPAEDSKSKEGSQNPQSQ

Structure (SMILES): CCN(CC)CCOc1ccc(-c2c(-c3ccccc3)c(=O)oc3ccccc23)cc1 [L-20, reference compound]
- Ki ([2]; ER binding assay of Example 14, read-out: ER Binding Assay ER-β (Ki)): > 10000 nM

Structure (SMILES): C[C@]12CC[C@@H]3c4ccc(O)cc4CC[C@H]3[C@@H]1CC[C@@H]2O [Estradiol, 17β-estradiol]
- increase in uterine weight [1]: 4.5 fold
- effect on production of IL-6 ([3]; co-culture system of Example 8): suppress the production of IL-6
- effect on production of GM-CSF [4]: reduced the production of GM-CSF

Structure (SMILES): O=c1oc2cc(O)ccc2c(Cc2ccc(OCCN3CCCCC3)cc2)c1-c1ccccc1 (as salt: HCl) [Compound No. 1, 3-Phenyl-4-[4-(2-{piperidin-1-yl})ethoxy]-benzyl-7-hydroxycoumarin]
- melting point: 160 to 161 °C

Structure (SMILES): O=c1oc2cc(O)ccc2c(Cc2ccc(OCCN3CCCCC3)cc2)c1-c1ccccc1 [Compound No. 1, 3-Phenyl-4-[4-(2-{piperidin-1-yl})ethoxy]-benzyl-7-hydroxycoumarin]
- increase in uterine weight ([5]; female, sc, 28 day): ~40%
- uterine liability [5]: does not exhibit significant uterine liability
- increase in uterine weight [1]: ~30%
- shape of dose response, uterine weight [1]: bell-shaped dose response
- binding affinity to ER-α (in words) [6]: high affinity
- binding affinity to ER-β (in words) ([2]; HCl salt, similar to estradiol): high affinity
- Ki ([2]; competition with 30 nM 3H-estradiol, room temperature, 1 hour, average of at least 3 experiments, read-out: Solid Phase ER Binding Ki, ER-β): 7.3 nM
- IC50 ([3]; U-937, human osteoblast/U937 co-culture, PMA induced, read-out: IC50 with respect to IL-6): 10 nM

Further lines, results first:

- shape of dose response, uterine weight [1]: bell-shaped dose response
- increase in uterine weight ([1]; 1 mg/kg dose): up to 50%
Structure (SMILES): O=C(c1ccc(OCCN2CCCCC2)cc1)c1c(-c2ccc(O)cc2)sc2cc(O)ccc12 [Raloxifene HCl]

- melting point: 171 to 172 °C
Structure (SMILES): COc1ccc2c(Cc3ccc(OCCN4CCCCC4)cc3)c(-c3ccccc3)c(=O)oc2c1 [Example 4, 3-Phenyl-4-[4-(2-{piperin-1-yl})ethoxy]-benzyl-7-methoxycoumarin]
